From the kinase profiling compilation of Christmann-Franck et al. (2016) come the findings set out here.

Chain of CAMK1G (human) (Q96NX5 whole entry, looked up): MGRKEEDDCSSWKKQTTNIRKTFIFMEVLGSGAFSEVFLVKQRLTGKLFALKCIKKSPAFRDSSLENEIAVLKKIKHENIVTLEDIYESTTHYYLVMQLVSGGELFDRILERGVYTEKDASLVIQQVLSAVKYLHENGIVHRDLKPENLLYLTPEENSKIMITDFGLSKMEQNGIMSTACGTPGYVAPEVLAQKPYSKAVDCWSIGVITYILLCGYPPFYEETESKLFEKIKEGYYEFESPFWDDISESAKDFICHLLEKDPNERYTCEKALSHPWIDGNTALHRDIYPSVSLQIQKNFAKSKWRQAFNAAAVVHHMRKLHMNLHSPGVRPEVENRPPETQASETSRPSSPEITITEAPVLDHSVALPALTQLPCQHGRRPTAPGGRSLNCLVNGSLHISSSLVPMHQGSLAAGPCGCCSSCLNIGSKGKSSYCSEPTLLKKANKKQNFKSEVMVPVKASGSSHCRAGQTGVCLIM
Chain of YES1 (human) (P07947 whole entry, looked up): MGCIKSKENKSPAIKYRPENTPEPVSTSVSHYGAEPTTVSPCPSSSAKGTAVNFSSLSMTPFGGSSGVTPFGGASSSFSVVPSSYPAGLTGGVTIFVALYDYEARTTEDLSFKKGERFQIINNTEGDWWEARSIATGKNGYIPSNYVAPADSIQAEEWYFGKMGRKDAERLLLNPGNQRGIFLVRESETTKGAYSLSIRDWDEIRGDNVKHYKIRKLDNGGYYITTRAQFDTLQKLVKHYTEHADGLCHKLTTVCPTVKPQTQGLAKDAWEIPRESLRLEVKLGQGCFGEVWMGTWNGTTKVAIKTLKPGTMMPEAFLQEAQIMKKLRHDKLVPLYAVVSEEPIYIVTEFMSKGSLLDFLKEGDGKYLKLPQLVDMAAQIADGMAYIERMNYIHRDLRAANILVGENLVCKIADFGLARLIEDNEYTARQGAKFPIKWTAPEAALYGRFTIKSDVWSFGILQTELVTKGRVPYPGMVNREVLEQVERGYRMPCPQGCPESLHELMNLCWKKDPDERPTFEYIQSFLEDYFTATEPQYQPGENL
Chain of EGFR (human) (P00533 whole entry, looked up): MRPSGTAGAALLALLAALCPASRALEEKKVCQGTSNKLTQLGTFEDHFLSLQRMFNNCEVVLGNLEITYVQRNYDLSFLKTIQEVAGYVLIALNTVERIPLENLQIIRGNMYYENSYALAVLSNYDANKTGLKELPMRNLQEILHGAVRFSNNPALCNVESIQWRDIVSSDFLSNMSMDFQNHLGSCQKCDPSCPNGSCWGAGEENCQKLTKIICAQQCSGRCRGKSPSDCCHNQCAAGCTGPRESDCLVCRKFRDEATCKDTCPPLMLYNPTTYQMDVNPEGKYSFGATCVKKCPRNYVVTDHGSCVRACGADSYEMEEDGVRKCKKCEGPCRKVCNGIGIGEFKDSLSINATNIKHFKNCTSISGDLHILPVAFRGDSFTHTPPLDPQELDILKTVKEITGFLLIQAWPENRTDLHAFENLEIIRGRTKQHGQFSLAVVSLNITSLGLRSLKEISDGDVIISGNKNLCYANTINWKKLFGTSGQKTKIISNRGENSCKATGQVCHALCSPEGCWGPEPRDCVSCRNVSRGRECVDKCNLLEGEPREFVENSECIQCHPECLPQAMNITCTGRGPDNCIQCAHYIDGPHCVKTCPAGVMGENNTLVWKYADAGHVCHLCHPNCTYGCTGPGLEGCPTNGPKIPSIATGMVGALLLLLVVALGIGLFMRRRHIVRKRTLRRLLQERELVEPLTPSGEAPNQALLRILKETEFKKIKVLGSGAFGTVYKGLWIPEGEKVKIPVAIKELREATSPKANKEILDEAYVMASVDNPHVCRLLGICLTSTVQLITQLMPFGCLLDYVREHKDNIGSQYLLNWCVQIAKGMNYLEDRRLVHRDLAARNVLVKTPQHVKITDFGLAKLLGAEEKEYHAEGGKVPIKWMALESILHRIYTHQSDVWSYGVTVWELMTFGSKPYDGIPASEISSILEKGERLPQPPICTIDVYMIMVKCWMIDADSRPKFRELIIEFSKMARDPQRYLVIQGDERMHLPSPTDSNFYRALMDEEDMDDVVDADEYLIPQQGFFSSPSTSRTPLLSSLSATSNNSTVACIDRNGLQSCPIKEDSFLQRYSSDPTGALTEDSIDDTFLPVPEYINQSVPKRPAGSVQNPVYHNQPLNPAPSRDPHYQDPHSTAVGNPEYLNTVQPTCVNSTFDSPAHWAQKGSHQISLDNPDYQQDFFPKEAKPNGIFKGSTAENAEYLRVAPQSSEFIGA

One test has as its target TAOK2 (human) (UniProt Q9UL54). Briefly: radiometric filter-binding kinase assay, Kinase HotSpot. Particulars: compound 0.5 µM; ATP 10 µM.
Usually residual activity stands for the signal under treatment as a percentage of the control signal. Regarding `CCn1cnc2c(Nc3cccc(Cl)c3)nc(N[C@@H]3CCCC[C@@H]3N)nc21`, the residual activity came out at 101%.
The same measure, in the same setting: the result for `CN(C)C[C@H]1CCn2c(c(C3=C(c4cn(C)c5ccccc45)C(=O)NC3=O)c3ccccc32)C1` reads 87.7%; that for `Cn1nc2c3c(cccc31)C(=O)c1ccccc1-2`, 104%.

A further test concerns the target PAK6 (human) (UniProt Q9NQU5). The description is as above. Particulars: compound 0.5 µM; ATP 10 µM.
On to `CCn1cnc2c(Nc3cccc(Cl)c3)nc(N[C@@H]3CCCC[C@@H]3N)nc21`, for which the residual activity is 96.7%.
Same read-out and setting: the result for `CN(C)C[C@H]1CCn2c(c(C3=C(c4cn(C)c5ccccc45)C(=O)NC3=O)c3ccccc32)C1` reads 114%; that for `Cn1nc2c3c(cccc31)C(=O)c1ccccc1-2`, 98.6%.

For another test, the target named is AURKA (human) (UniProt O14965). The test is described as above. Conditions: compound 0.5 µM; ATP 10 µM.
Chain of AURKA (human) (O14965 whole entry, looked up): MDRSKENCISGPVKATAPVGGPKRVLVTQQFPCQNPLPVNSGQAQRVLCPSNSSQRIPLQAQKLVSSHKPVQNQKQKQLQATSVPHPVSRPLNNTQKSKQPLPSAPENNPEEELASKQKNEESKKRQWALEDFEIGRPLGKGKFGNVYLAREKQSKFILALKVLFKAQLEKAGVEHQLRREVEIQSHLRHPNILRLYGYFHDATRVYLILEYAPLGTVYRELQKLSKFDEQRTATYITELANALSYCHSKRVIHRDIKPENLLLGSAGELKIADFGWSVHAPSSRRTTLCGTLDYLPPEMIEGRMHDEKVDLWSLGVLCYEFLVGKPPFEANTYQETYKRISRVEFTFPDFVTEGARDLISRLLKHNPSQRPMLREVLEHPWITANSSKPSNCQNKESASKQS
As for `CCn1cnc2c(Nc3cccc(Cl)c3)nc(N[C@@H]3CCCC[C@@H]3N)nc21`, the residual activity stood at 105%.
For `CN(C)C[C@H]1CCn2c(c(C3=C(c4cn(C)c5ccccc45)C(=O)NC3=O)c3ccccc32)C1`, the residual activity turned out to be 87.7%.
As to `Cn1nc2c3c(cccc31)C(=O)c1ccccc1-2`, the residual activity was 89.4%.

A further test has as its target GSK3B (human) (UniProt P49841). The test is described as above. Conditions: compound 0.5 µM; ATP 10 µM.
Consider `CCn1cnc2c(Nc3cccc(Cl)c3)nc(N[C@@H]3CCCC[C@@H]3N)nc21`, for which the residual activity is 104%.
Same read-out and setting: the result for `CN(C)C[C@H]1CCn2c(c(C3=C(c4cn(C)c5ccccc45)C(=O)NC3=O)c3ccccc32)C1` reads 11.2%.
Still for that read-out and setting: the result for `Cn1nc2c3c(cccc31)C(=O)c1ccccc1-2` reads 94%.

A further test concerns the target CAMK1G (human) (UniProt Q96NX5). The description is as above. Conditions: compound 0.5 µM; ATP 10 µM.
`CCn1cnc2c(Nc3cccc(Cl)c3)nc(N[C@@H]3CCCC[C@@H]3N)nc21`: the residual activity was 94.1%.
The same measure, in the same setting: the result for `CN(C)C[C@H]1CCn2c(c(C3=C(c4cn(C)c5ccccc45)C(=O)NC3=O)c3ccccc32)C1` reads 95.8%; that for `Cn1nc2c3c(cccc31)C(=O)c1ccccc1-2`, 95.5%.

Another test deals with MARK2 (human) (UniProt Q7KZI7). The test is described as above. Conditions: compound 0.5 µM; ATP 10 µM.
Chain of MARK2 (human) (Q7KZI7 whole entry, looked up): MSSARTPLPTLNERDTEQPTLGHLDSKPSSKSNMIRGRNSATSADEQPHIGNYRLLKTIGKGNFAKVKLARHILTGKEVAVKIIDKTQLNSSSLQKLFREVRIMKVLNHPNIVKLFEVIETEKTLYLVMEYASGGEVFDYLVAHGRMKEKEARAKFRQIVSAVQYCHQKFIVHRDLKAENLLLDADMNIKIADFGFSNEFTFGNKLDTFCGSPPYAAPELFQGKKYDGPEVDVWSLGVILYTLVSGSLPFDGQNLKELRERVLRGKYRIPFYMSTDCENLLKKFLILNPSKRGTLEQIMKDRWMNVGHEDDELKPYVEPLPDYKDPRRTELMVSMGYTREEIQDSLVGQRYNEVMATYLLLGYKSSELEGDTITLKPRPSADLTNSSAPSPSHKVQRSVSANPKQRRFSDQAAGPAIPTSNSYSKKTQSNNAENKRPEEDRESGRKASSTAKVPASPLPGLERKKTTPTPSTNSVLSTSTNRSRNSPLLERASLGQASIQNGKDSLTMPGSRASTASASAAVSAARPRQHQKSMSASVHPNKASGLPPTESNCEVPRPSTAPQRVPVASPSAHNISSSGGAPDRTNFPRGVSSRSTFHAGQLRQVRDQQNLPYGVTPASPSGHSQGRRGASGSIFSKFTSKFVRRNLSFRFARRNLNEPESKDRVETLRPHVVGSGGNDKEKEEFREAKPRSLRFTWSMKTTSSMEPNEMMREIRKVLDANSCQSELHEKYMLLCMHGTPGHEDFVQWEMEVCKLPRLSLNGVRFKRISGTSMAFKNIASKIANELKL
On to `CCn1cnc2c(Nc3cccc(Cl)c3)nc(N[C@@H]3CCCC[C@@H]3N)nc21`, for which the residual activity stood at 90.1%.
Same read-out and setting: the result for `CN(C)C[C@H]1CCn2c(c(C3=C(c4cn(C)c5ccccc45)C(=O)NC3=O)c3ccccc32)C1` reads 94.9%; that for `Cn1nc2c3c(cccc31)C(=O)c1ccccc1-2`, 94.1%.

In the next test the target is SRPK1 (human) (UniProt Q96SB4). The description is as above. Particulars: compound 0.5 µM; ATP 10 µM.
On to `CCn1cnc2c(Nc3cccc(Cl)c3)nc(N[C@@H]3CCCC[C@@H]3N)nc21`, for which the residual activity is 94.2%.
Same read-out and setting: the result for `CN(C)C[C@H]1CCn2c(c(C3=C(c4cn(C)c5ccccc45)C(=O)NC3=O)c3ccccc32)C1` reads 103%; that for `Cn1nc2c3c(cccc31)C(=O)c1ccccc1-2`, 99.7%.

A further test deals with GSK3A (human) (UniProt P49840). Described as above. Conditions: compound 0.5 µM; ATP 10 µM.
Chain of GSK3A (human) (P49840 whole entry, looked up): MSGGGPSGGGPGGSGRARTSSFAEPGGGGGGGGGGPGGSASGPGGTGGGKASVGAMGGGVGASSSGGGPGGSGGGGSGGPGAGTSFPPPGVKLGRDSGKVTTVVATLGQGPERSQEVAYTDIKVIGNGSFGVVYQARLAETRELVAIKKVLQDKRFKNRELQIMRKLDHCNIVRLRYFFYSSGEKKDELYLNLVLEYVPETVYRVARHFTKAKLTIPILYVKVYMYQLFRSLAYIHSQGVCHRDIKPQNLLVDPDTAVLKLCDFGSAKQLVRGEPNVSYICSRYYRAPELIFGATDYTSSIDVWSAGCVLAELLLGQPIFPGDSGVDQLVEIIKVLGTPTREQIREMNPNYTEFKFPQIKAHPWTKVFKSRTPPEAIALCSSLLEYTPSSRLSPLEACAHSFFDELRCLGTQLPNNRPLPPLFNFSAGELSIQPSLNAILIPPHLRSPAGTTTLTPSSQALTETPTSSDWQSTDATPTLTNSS
With `CCn1cnc2c(Nc3cccc(Cl)c3)nc(N[C@@H]3CCCC[C@@H]3N)nc21`, the residual activity stood at 103%.
The same measure, in the same setting: the result for `CN(C)C[C@H]1CCn2c(c(C3=C(c4cn(C)c5ccccc45)C(=O)NC3=O)c3ccccc32)C1` reads 14.2%; that for `Cn1nc2c3c(cccc31)C(=O)c1ccccc1-2`, 91.1%.

Another test has as its target CDK6 CCND1 (human) (UniProt Q00534+P24385). Described as above. Particulars: compound 0.5 µM; ATP 10 µM.
Regarding `CCn1cnc2c(Nc3cccc(Cl)c3)nc(N[C@@H]3CCCC[C@@H]3N)nc21`, the residual activity came out at 60.9%.
The same measure, in the same setting: the result for `CN(C)C[C@H]1CCn2c(c(C3=C(c4cn(C)c5ccccc45)C(=O)NC3=O)c3ccccc32)C1` reads 70.5%; that for `Cn1nc2c3c(cccc31)C(=O)c1ccccc1-2`, 88%.

Another test addresses EGFR (human) (UniProt P00533). Described as above. Particulars: compound 0.5 µM; ATP 10 µM.
As to `CCn1cnc2c(Nc3cccc(Cl)c3)nc(N[C@@H]3CCCC[C@@H]3N)nc21`, the residual activity was 98.1%.
As for `CN(C)C[C@H]1CCn2c(c(C3=C(c4cn(C)c5ccccc45)C(=O)NC3=O)c3ccccc32)C1`, the residual activity stood at 95.8%.
The same measure, in the same setting: the result for `Cn1nc2c3c(cccc31)C(=O)c1ccccc1-2` reads 105%.

A further test deals with TAOK3 (human) (UniProt Q9H2K8). Described as above. Conditions: compound 0.5 µM; ATP 10 µM.
`CCn1cnc2c(Nc3cccc(Cl)c3)nc(N[C@@H]3CCCC[C@@H]3N)nc21`: the residual activity was 104%.
For the compound `CN(C)C[C@H]1CCn2c(c(C3=C(c4cn(C)c5ccccc45)C(=O)NC3=O)c3ccccc32)C1`, the residual activity turned out to be 96.4%.
For `Cn1nc2c3c(cccc31)C(=O)c1ccccc1-2`, the residual activity stood at 87.6%.

Another test addresses EPHB4 (human) (UniProt P54760). The description is as above. Particulars: compound 0.5 µM; ATP 10 µM.
For the compound `CCn1cnc2c(Nc3cccc(Cl)c3)nc(N[C@@H]3CCCC[C@@H]3N)nc21`, the residual activity amounted to 70.8%.
The same measure, in the same setting: the result for `CN(C)C[C@H]1CCn2c(c(C3=C(c4cn(C)c5ccccc45)C(=O)NC3=O)c3ccccc32)C1` reads 90.9%; that for `Cn1nc2c3c(cccc31)C(=O)c1ccccc1-2`, 99.9%.

A further test concerns the target YES1 (human) (UniProt P07947). The description is as above. Conditions: compound 0.5 µM; ATP 10 µM.
As to `CCn1cnc2c(Nc3cccc(Cl)c3)nc(N[C@@H]3CCCC[C@@H]3N)nc21`, the residual activity was determined as 35.4%.
For the compound `CN(C)C[C@H]1CCn2c(c(C3=C(c4cn(C)c5ccccc45)C(=O)NC3=O)c3ccccc32)C1`, the residual activity worked out at 95.3%.
The same measure, in the same setting: the result for `Cn1nc2c3c(cccc31)C(=O)c1ccccc1-2` reads 94.5%.

A further test addresses RPS6KB2 (human) (UniProt Q9UBS0). Described as above. Particulars: compound 0.5 µM; ATP 10 µM.
As for `CCn1cnc2c(Nc3cccc(Cl)c3)nc(N[C@@H]3CCCC[C@@H]3N)nc21`, the residual activity turned out to be 103%.
On to `CN(C)C[C@H]1CCn2c(c(C3=C(c4cn(C)c5ccccc45)C(=O)NC3=O)c3ccccc32)C1`, for which the residual activity was found to be 67.6%.
Same read-out and setting: the result for `Cn1nc2c3c(cccc31)C(=O)c1ccccc1-2` reads 94.7%.

Another test addresses MARK1 (human) (UniProt Q9P0L2). The test is described as above. Conditions: compound 0.5 µM; ATP 10 µM.
In the case of `CCn1cnc2c(Nc3cccc(Cl)c3)nc(N[C@@H]3CCCC[C@@H]3N)nc21`, the residual activity came to 93.1%.
The same measure, in the same setting: the result for `CN(C)C[C@H]1CCn2c(c(C3=C(c4cn(C)c5ccccc45)C(=O)NC3=O)c3ccccc32)C1` reads 92.8%; that for `Cn1nc2c3c(cccc31)C(=O)c1ccccc1-2`, 95.7%.

Another test addresses LRRK2 (human) (UniProt Q5S007). Described as above. Conditions: compound 0.5 µM; ATP 10 µM.
For `CCn1cnc2c(Nc3cccc(Cl)c3)nc(N[C@@H]3CCCC[C@@H]3N)nc21`, the residual activity stood at 70%.
Take `CN(C)C[C@H]1CCn2c(c(C3=C(c4cn(C)c5ccccc45)C(=O)NC3=O)c3ccccc32)C1`: the residual activity is 93.1%.
As for `Cn1nc2c3c(cccc31)C(=O)c1ccccc1-2`, the residual activity amounted to 55.9%.

For the next test, the target named is MYLK2 (human) (UniProt Q9H1R3). The test is described as above. Conditions: compound 0.5 µM; ATP 10 µM.
Chain of MYLK2 (human) (Q9H1R3 whole entry, looked up): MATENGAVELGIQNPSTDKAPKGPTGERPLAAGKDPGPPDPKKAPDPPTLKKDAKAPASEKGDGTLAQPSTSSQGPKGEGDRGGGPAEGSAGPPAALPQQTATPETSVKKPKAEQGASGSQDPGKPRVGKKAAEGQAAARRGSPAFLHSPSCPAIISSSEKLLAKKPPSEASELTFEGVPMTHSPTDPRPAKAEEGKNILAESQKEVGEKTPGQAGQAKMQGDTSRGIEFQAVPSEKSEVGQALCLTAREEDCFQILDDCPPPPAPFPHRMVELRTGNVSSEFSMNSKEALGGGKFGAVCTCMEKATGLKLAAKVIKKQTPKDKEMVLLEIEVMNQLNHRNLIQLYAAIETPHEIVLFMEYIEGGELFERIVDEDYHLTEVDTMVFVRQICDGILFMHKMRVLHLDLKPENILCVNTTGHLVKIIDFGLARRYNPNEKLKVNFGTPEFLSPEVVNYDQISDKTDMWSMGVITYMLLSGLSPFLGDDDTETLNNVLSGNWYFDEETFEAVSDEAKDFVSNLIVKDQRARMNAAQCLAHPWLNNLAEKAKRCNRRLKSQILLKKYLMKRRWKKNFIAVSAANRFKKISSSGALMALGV
Regarding `CCn1cnc2c(Nc3cccc(Cl)c3)nc(N[C@@H]3CCCC[C@@H]3N)nc21`, the residual activity was determined as 95.2%.
On the same count and under the same terms, the result for `CN(C)C[C@H]1CCn2c(c(C3=C(c4cn(C)c5ccccc45)C(=O)NC3=O)c3ccccc32)C1` reads 74.2%.
For `Cn1nc2c3c(cccc31)C(=O)c1ccccc1-2`, the residual activity was determined as 78.8%.

For another test, the target named is MUSK (human) (UniProt O15146). Described as above. Conditions: compound 0.5 µM; ATP 10 µM.
`CCn1cnc2c(Nc3cccc(Cl)c3)nc(N[C@@H]3CCCC[C@@H]3N)nc21`: the residual activity is 79.8%.
Same read-out and setting: the result for `CN(C)C[C@H]1CCn2c(c(C3=C(c4cn(C)c5ccccc45)C(=O)NC3=O)c3ccccc32)C1` reads 85.6%; that for `Cn1nc2c3c(cccc31)C(=O)c1ccccc1-2`, 88.4%.

In another test the target is FRK (human) (UniProt P42685). Described as above. Particulars: compound 0.5 µM; ATP 10 µM.
Chain of FRK (human) (P42685 whole entry, looked up): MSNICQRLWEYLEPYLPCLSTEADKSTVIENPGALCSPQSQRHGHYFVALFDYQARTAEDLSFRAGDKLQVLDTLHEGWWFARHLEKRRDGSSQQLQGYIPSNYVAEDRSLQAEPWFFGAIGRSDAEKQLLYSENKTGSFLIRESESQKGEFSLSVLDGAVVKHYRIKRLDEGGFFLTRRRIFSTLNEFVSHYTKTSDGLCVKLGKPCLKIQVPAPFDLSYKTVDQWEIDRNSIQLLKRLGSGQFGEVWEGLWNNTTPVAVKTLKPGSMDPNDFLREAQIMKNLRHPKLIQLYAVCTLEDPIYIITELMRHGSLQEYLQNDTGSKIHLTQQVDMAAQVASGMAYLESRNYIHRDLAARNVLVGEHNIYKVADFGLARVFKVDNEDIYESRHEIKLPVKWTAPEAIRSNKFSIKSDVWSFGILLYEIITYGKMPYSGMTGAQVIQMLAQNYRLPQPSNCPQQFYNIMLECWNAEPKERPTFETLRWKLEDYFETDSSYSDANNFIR
For the compound `CCn1cnc2c(Nc3cccc(Cl)c3)nc(N[C@@H]3CCCC[C@@H]3N)nc21`, the residual activity amounted to 87.7%.
Turning to `CN(C)C[C@H]1CCn2c(c(C3=C(c4cn(C)c5ccccc45)C(=O)NC3=O)c3ccccc32)C1`, the residual activity was found to be 103%.
Take `Cn1nc2c3c(cccc31)C(=O)c1ccccc1-2`: the residual activity was found to be 94.3%.

A further test deals with MLTK (human) (UniProt Q9NYL2). The description is as above. Particulars: compound 0.5 µM; ATP 10 µM.
Regarding `CCn1cnc2c(Nc3cccc(Cl)c3)nc(N[C@@H]3CCCC[C@@H]3N)nc21`, the residual activity came to 104%.
Same read-out and setting: the result for `CN(C)C[C@H]1CCn2c(c(C3=C(c4cn(C)c5ccccc45)C(=O)NC3=O)c3ccccc32)C1` reads 87.3%; that for `Cn1nc2c3c(cccc31)C(=O)c1ccccc1-2`, 83.1%.

The target of a further test is STK4 (human) (UniProt Q13043). Described as above. Conditions: compound 0.5 µM; ATP 10 µM.
`CCn1cnc2c(Nc3cccc(Cl)c3)nc(N[C@@H]3CCCC[C@@H]3N)nc21`: the residual activity was 91.3%.
Still for that read-out and setting: the result for `CN(C)C[C@H]1CCn2c(c(C3=C(c4cn(C)c5ccccc45)C(=O)NC3=O)c3ccccc32)C1` reads 80.1%.
Still for that read-out and setting: the result for `Cn1nc2c3c(cccc31)C(=O)c1ccccc1-2` reads 78.9%.
